Test results taken from US9169254B2, “Spiroimidazolone derivative” (Chugai Seiyaku Kabushiki Kaisha, priority 2009, dated 2015).

Molecular target: T1, human PTH1 receptor (Homo sapiens, UniProt Q03431)
T1 sequence (Q03431 27-593): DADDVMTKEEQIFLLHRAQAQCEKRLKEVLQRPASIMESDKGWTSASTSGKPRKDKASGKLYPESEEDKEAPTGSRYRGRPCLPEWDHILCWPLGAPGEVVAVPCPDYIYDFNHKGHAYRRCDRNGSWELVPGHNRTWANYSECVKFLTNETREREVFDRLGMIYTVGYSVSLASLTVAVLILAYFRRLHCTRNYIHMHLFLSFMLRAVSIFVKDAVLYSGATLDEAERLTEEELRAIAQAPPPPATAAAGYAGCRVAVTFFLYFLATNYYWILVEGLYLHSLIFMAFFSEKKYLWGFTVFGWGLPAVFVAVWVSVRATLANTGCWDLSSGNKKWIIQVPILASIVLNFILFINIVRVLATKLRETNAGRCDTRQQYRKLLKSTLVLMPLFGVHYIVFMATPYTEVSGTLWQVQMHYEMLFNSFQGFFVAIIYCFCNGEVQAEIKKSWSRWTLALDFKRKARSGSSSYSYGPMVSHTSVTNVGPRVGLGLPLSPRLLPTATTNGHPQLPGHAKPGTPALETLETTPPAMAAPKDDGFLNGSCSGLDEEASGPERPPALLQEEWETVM
Experiment: In vitro cAMP signal activity in HKRK-B7 cells (LLC-PK1 cells overexpressing the human PTH1 receptor)
Format: cell-based
Conditions: HKRK-B7 cells; compound at 1×10^−3 M; […]; 0.1 µM

Structure (SMILES) | cAMP production activity (%)
O=C(Nc1ccccc1)c1ccccc1S(=O)(=O)N1CCC2(CC1)N=C(C1CCCCC1)NC2=O [Compound 957, 2-(2-Cyclohexyl-4-oxo-1,3,8-triaza-spiro[4.5]dec-1-ene-8-sulfonyl)-N-phenyl-benzamide] | 17%

Same assay, conditions: HKRK-B7 cells; compound at 1×10^−3 M; cAMP produced as percentage of that produced by hPTH(1-34) at 100 nM

Structure (SMILES) | cAMP production activity (%)
Cc1cc(N(C)C(N)=O)cc(C)c1CCS(=O)(=O)N1CC2(C1)N=C(c1cccc(OC(F)(F)F)c1)NC2=O [Compound 941, 1-(3,5-dimethyl-4-{2-[8-oxo-6-(3-trifluoromethoxy-phenyl)-2,5,7-triaza-spiro[3.4]oct-5-ene-2-sulfonyl]-ethyl}-phenyl)-1-methyl-urea] | 21%
CC(=O)N(C)c1ccc(/C(F)=C\S(=O)(=O)N2CCC3(CC2)N=C(C2CCC(C)CC2)NC3=O)c(C)c1 (stereo not drawn) [Compound 942, N-(4-{(E)-1-Fluoro-2-[2-(4-methyl-cyclohexyl)-4-oxo-1,3,8-triaza-spiro[4.5]dec-1-ene-8-sulfonyl]-vinyl}-3-methyl-phenyl)-N-methyl-acetamide] | 31%
Cc1cc(N2C(=O)CNC2=O)ccc1CCS(=O)(=O)N1CCC2(CC1)N=C(C1CCC(CCC(F)(F)F)CC1)NC2=O (stereo not drawn) [Compound 943, 3-[3-Methyl-4-(2-{4-oxo-2-[4-(3,3,3-trifluoro-propyl)-cyclohexyl]-1,3,8-triaza-spiro[4.5]dec-1-ene-8-sulfonyl}-ethyl)-phenyl]-imidazolidine-2,4-dione] | 74%
Cc1cc(N2C(=O)CNC2=O)ccc1CCS(=O)(=O)N1CCC2(CC1)N=C(C1CCC(CCCC(F)(F)F)CC1)NC2=O (stereo not drawn) [Compound 944, 3-[3-methyl-4-(2-{4-oxo-2-[4-(4,4,4-trifluoro-butyl)-cyclohexyl]-1,3,8-triaza-spiro[4.5]dec-1-ene-8-sulfonyl}-ethyl)-phenyl]-imidazolidine-2,4-dione] | 71%
Cc1cc(N2C(=O)CNC2=O)ccc1CCS(=O)(=O)N1CCC2(CC1)N=C(C1CCC(/C=C/C(F)F)CC1)NC2=O (stereo not drawn) [Compound 945, 3-[4-(2-{2-[4-((E)-3,3-difluoro-propenyl)-cyclohexyl]-4-oxo-1,3,8-triaza-spiro[4.5]dec-1-ene-8-sulfonyl}-ethyl)-3-methyl-phenyl]-imidazolidine-2,4-dione] | 77%
Cc1cc(N2C(=O)CNC2=O)ccc1CCS(=O)(=O)N1CCC2(CC1)N=C([C@H]1CC[C@H](CC=C(F)F)CC1)NC2=O [Compound 946, 3-[4-(2-{2-[4-(3,3-difluoro-allyl)-cyclohexyl]-4-oxo-1,3,8-triaza-spiro[4.5]dec-1-ene-8-sulfonyl}-ethyl)-3-methyl-phenyl]-imidazolidine-2,4-dione] | 102%
Cc1cc(N2C(=O)CNC2=O)ccc1CCS(=O)(=O)N1CCC2(CC1)N=C(C1CCC(C(F)(F)F)CC1)NC2=O (stereo not drawn) [Compound 947, 3-(3-methyl-4-{2-[4-oxo-2-(4-trifluoromethyl-cyclohexyl)-1,3,8-triaza-spiro[4.5]dec-1-ene-8-sulfonyl]-ethyl}-phenyl)-imidazolidine-2,4-dione] | 89%
Cc1cc(N2C(=O)CNC2=O)ccc1CCS(=O)(=O)N1CCC2(CC1)N=C([C@H]1CC[C@H](CC(F)(F)F)CC1)NC2=O [Compound 948, 3-[3-Methyl-4-(2-{4-oxo-2-[4-(2,2,2-trifluoro-ethyl)-cyclohexyl]-1,3,8-triaza-spiro[4.5]dec-1-ene-8-sulfonyl}-ethyl)-phenyl]-imidazolidine-2,4-dione] | 68%
CCC[C@@H]1CCC[C@H](C2=NC3(CCN(S(=O)(=O)CCc4ccc(N5C(=O)CNC5=O)cc4C)CC3)C(=O)N2)C1 [Compound 949, 3-(3-methyl-4-{2-[4-oxo-2-((1S,3R)-3-propyl-cyclohexyl)-1,3,8-triaza-spiro[4.5]dec-1-ene-8-sulfonyl]-ethyl}-phenyl)-imidazolidine-2,4-dione] | 92%
Cc1cc(N2C(=O)CNC2=O)ccc1CCS(=O)(=O)N1CCC2(CC1)N=C([C@H]1CCC[C@@H](C)C1)NC2=O [Compound 950, 3-(3-methyl-4-{2-[2-((1S,3R)-3-methyl-cyclohexyl)-4-oxo-1,3,8-triaza-spiro[4.5]dec-1-ene-8-sulfonyl]-ethyl}-phenyl)-imidazolidine-2,4-dione] | 59%
Cc1cc(N2C(=O)CNC2=O)ccc1CCS(=O)(=O)N1CCC2(CC1)N=C(C1CCC(C)(C)CC1)NC2=O [Compound 951, 3-(4-{2-[2-(4,4-dimethyl-cyclohexyl)-4-oxo-1,3,8-triaza-spiro[4.5]dec-1-ene-8-sulfonyl]-ethyl}-3-methyl-phenyl)-imidazolidine-2,4-dione] | 93%
Cc1cc(N2C(=O)CNC2=O)ccc1CCS(=O)(=O)N1CCC2(CC1)N=C(C1CC(C)(C)CC(C)(C)C1)NC2=O [Compound 952, 3-(3-methyl-4-{2-[4-oxo-2-(3,3,5,5-tetramethyl-cyclohexyl)-1,3,8-triaza-spiro[4.5]dec-1-ene-8-sulfonyl]-ethyl}-phenyl)-imidazolidine-2,4-dione] | 95%
CCC1CCC(C2=NC3(CCN(S(=O)(=O)CCc4cc(Cl)c(NC(C)=O)cc4C)CC3)C(=O)N2)CC1 (stereo not drawn) [Compound 953, N-(2-Chloro-4-{2-[2-(4-ethyl-cyclohexyl)-4-oxo-1,3,8-triaza-spiro[4.5]dec-1-ene-8-sulfonyl]-ethyl}-5-methyl-phenyl)-acetamide] | 77%

The remaining lines, values ahead:

cAMP production activity (%) | Structure (SMILES)
81% | CCC1CCC(C2=NC3(CCN(S(=O)(=O)CCc4ccc(NC(C)=O)c(Cl)c4C)CC3)C(=O)N2)CC1 (stereo not drawn) [Compound 954, N-(2-chloro-4-{2-[2-(4-ethyl-cyclohexyl)-4-oxo-1,3,8-triaza-spiro[4.5]dec-1-ene-8-sulfonyl]-ethyl}-3-methyl-phenyl)-acetamide]
79% | CC(=O)Nc1ccc(CCS(=O)(=O)N2CCC3(CC2)N=C([C@H]2CC[C@H](CCC(F)F)CC2)NC3=O)c(C)c1 [Compound 955, N-[4-(2-{2-[4-(3,3-Difluoro-propyl)-cyclohexyl]-4-oxo-1,3,8-triaza-spiro[4.5]dec-1-ene-8-sulfonyl}-ethyl)-3-methyl-phenyl]-acetamide]
87% | Cc1cc(N2C(=O)CNC2=O)ccc1CCS(=O)(=O)N1CCC2(CC1)N=C(C1CCC(CCC(F)F)CC1)NC2=O (stereo not drawn) [Compound 956, 3-[4-(2-{2-[4-(3,3-difluoro-propyl)-cyclohexyl]-4-oxo-1,3,8-triaza-spiro[4.5]dec-1-ene-8-sulfonyl}-ethyl)-3-methyl-phenyl]-imidazolidine-2,4-dione]
49% | Cc1cc(C(=O)N2CCN(C3CCN(C)CC3)CC2)ccc1CCS(=O)(=O)N1CCC2(CC1)N=C(c1cccc(C(F)(F)F)c1)NC2=O [Compound 958]
77% | Cc1cc(C(=O)N2CC[C@@H](F)C2)cc(C)c1/C=C/S(=O)(=O)N1CCC2(CC1)N=C(c1cccc(OC(F)(F)F)c1)NC2=O [Compound 959, 8-{(E)-2-[4-((R)-3-Fluoro-pyrrolidine-1-carbonyl)-2,6-dimethyl-phenyl]-ethenesulfonyl}-2-(3-trifluoromethoxy-phenyl)-1,3,8-triaza-spiro[4.5]dec-1-en-4-one]
84% | Cc1cc(C(=O)N2CCC(CO)CC2)cc(C)c1/C=C/S(=O)(=O)N1CCC2(CC1)N=C(c1cccc(OC(F)(F)F)c1)NC2=O [Compound 960, 8-{(E)-2-[4-(4-hydroxymethyl-piperidine-1-carbonyl)-2,6-dimethyl-phenyl]-ethenesulfonyl}-2-(3-trifluoromethoxy-phenyl)-1,3,8-triaza-spiro[4.5]dec-1-en-4-one]
92% | Cc1cc(C(=O)N(C)C)cc(C)c1/C=C/S(=O)(=O)N1CCC2(CC1)N=C(c1cccc(OC(F)(F)F)c1)NC2=O [Compound 961, 3,5,N,N-tetramethyl-4-{(E)-2-[4-oxo-2-(3-trifluoromethoxy-phenyl)-1,3,8-triaza-spiro[4.5]dec-1-ene-8-sulfonyl]-vinyl}-benzamide]
86% | Cc1cc(C(N)=O)cc(C)c1/C=C/S(=O)(=O)N1CCC2(CC1)N=C(c1cccc(OC(F)(F)F)c1)NC2=O [Compound 962, 3,5-dimethyl-4-{(E)-2-[4-oxo-2-(3-trifluoromethoxy-phenyl)-1,3,8-triaza-spiro[4.5]dec-1-ene-8-sulfonyl]-vinyl}-benzamide]
16% | Cc1cc(C(=O)N2CC(F)C2)cc(C)c1/C=C/S(=O)(=O)N1CCC2(CC1)N=C(c1cccc(OC(F)(F)F)c1)NC2=O [Compound 963, 8-{(E)-2-[4-(3-Fluoro-azetidine-1-carbonyl)-2,6-dimethyl-phenyl]-ethenesulfonyl}-2-(3-trifluoromethoxy-phenyl)-1,3,8-triaza-spiro[4.5]dec-1-en-4-one]
119% | Cc1cc(C(=O)N2CCC(O)CC2)cc(C)c1CCS(=O)(=O)N1CCC2(CC1)N=C(c1cccc(OC(F)(F)F)c1)NC2=O [Compound 964, 8-{2-[4-(4-Hydroxy-piperidine-1-carbonyl)-2,6-dimethyl-phenyl]-ethanesulfonyl}-2-(3-trifluoromethoxy-phenyl)-1,3,8-triaza-spiro[4.5]dec-1-en-4-one]
